Measured values as given in ChEMBL document CHEMBL1201862, “PubChem BioAssay data set” (2004).
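Interpolation was linear, between the two tested concentrations surrounding the appropriate level; five concentrations were tested over 48 hours in 96-well plates. GI50 marks 50% less growth.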 The source made the active and inactive calls. Rule as the data show it: active = GI50 up to about 1.1 µM and inactive = higher.

Columns and labels:
Test in all cases: DTP human tumour cell line panel, 48 h
OVCAR-3 = test system: OVCAR-3
MDA-N = test system: MDA-N
BT-549 = test system: BT-549
NCI-H23 = test system: NCI-H23
SK-MEL-2 = test system: SK-MEL-2
SF-539 = test system: SF-539
SR = test system: SR
786-0 = test system: 786-0
K562 = test system: K562
IGROV-1 = test system: IGROV-1
MCF7 = test system: MCF7
NCI-H226 = test system: NCI-H226
COLO 205 = test system: COLO 205
ACHN = test system: ACHN
MOLT-4 = test system: MOLT-4
A498 = test system: A498
TK-10 = test system: TK-10
OVCAR-4 = test system: OVCAR-4
HL-60 = test system: HL-60

Row | SMILES | GI50 (OVCAR-3) | GI50 (MDA-N) | GI50 (BT-549) | GI50 (NCI-H23) | GI50 (SK-MEL-2) | GI50 (SF-539) | GI50 (SR) | GI50 (786-0) | GI50 (K562) | GI50 (IGROV-1) | GI50 (MCF7) | GI50 (NCI-H226) | GI50 (COLO 205) | GI50 (ACHN) | GI50 (MOLT-4) | GI50 (A498) | GI50 (TK-10) | GI50 (OVCAR-4) | GI50 (HL-60)
1 | C[C@H](NC(=O)c1ccc(CNC(=O)/C=C/c2cccc(Oc3ccccc3)c2)cc1)c1ccccc1 | > 100 µM (inactive) | > 100 µM (inactive) | > 100 µM (inactive) | > 100 µM (inactive) | > 100 µM (inactive) | 27 µM (inactive) | 26.8 µM (inactive) | 36.5 µM (inactive) | > 100 µM (inactive) | > 100 µM (inactive) | > 100 µM (inactive) | 32.7 µM (inactive) | > 100 µM (inactive) | 57.9 µM (inactive) | 93.3 µM (inactive) | 73.6 µM (inactive) | 61.4 µM (inactive) | 83.2 µM (inactive) | –
2 | Cc1c(CCCl)c(=O)n2c([nH]c3ccccc32)c1C#N | 1.73 µM (inactive) | 1.61 µM (inactive) | 1.91 µM (inactive) | 1.53 µM (inactive) | 2.79 µM (inactive) | 1.48 µM (inactive) | 0.527 µM (active) | 1.51 µM (inactive) | 1.34 µM (inactive) | 1.77 µM (inactive) | 1.61 µM (inactive) | 2.02 µM (inactive) | 0.148 µM (active) | 1.43 µM (inactive) | 0.237 µM (active) | – | 2.54 µM (inactive) | 1.77 µM (inactive) | 1.55 µM (inactive)
3 | CCCCCCCCCCCCCCCCS(=O)(=O)c1ccc(NN)cc1 | 8.81 µM (inactive) | > 10 µM (inactive) | > 10 µM (inactive) | 4.88 µM (inactive) | > 10 µM (inactive) | 7.43 µM (inactive) | 2.77 µM (inactive) | > 10 µM (inactive) | 2.71 µM (inactive) | > 10 µM (inactive) | > 10 µM (inactive) | – | > 10 µM (inactive) | > 10 µM (inactive) | 6.43 µM (inactive) | > 10 µM (inactive) | > 10 µM (inactive) | 8.17 µM (inactive) | 1.5 µM (inactive)
4 | CCc1c[n+]([O-])c(C)cc1[N+](=O)[O-] | > 100 µM (inactive) | 44.2 µM (inactive) | > 100 µM (inactive) | 74.1 µM (inactive) | 21 µM (inactive) | > 100 µM (inactive) | 33.6 µM (inactive) | 97.1 µM (inactive) | 48.6 µM (inactive) | > 100 µM (inactive) | 90.8 µM (inactive) | – | 15.6 µM (inactive) | 17.7 µM (inactive) | > 100 µM (inactive) | > 100 µM (inactive) | 35.2 µM (inactive) | – | > 100 µM (inactive)
5 | Cc1ccc(/N=N/C(=NNC(=O)c2ccc(C)cc2)c2ccc(N(C)C)cc2)cc1 | 17.6 µM (inactive) | 19.8 µM (inactive) | 26.2 µM (inactive) | 24.3 µM (inactive) | 38.3 µM (inactive) | 43 µM (inactive) | 17.9 µM (inactive) | 33.3 µM (inactive) | 24.9 µM (inactive) | 29.3 µM (inactive) | 20 µM (inactive) | 23.8 µM (inactive) | 12.3 µM (inactive) | 66.4 µM (inactive) | 33 µM (inactive) | – | 64.7 µM (inactive) | 18.5 µM (inactive) | 27.5 µM (inactive)
6 | CC1(C)C=C(/C=N/Nc2ccc([N+](=O)[O-])cc2)C(C#N)=C(O)C1(C#N)C#N | > 100 µM (inactive) | > 100 µM (inactive) | > 100 µM (inactive) | > 100 µM (inactive) | > 100 µM (inactive) | > 100 µM (inactive) | > 100 µM (inactive) | > 100 µM (inactive) | > 100 µM (inactive) | > 100 µM (inactive) | > 100 µM (inactive) | > 100 µM (inactive) | > 100 µM (inactive) | > 100 µM (inactive) | > 100 µM (inactive) | – | > 100 µM (inactive) | > 100 µM (inactive) | > 100 µM (inactive)
7 | COc1cc(/C=N\NC(=O)C[N+](C)(C)C)cc(OC)c1OC | > 10 µM (inactive) | > 10 µM (inactive) | > 10 µM (inactive) | > 10 µM (inactive) | – | > 10 µM (inactive) | > 10 µM (inactive) | > 10 µM (inactive) | > 10 µM (inactive) | > 10 µM (inactive) | > 10 µM (inactive) | – | > 10 µM (inactive) | > 10 µM (inactive) | > 10 µM (inactive) | – | > 10 µM (inactive) | > 10 µM (inactive) | > 10 µM (inactive)
8 | CCOC(=O)Oc1cc2c(c(OC)c1OC)-c1ccc(SC)c(=O)cc1C(NC(=O)C(F)(F)F)CC2 (stereo not given) | < 0.001 µM (active) | < 0.001 µM (active) | 0.1 µM (active) | 0.0209 µM (active) | – | – | 0.00128 µM (active) | 0.0017 µM (active) | < 0.001 µM (active) | 0.0022 µM (active) | < 0.001 µM (active) | 0.00106 µM (active) | 0.0577 µM (active) | 0.00224 µM (active) | 0.00117 µM (active) | 0.00133 µM (active) | > 10 µM (inactive) | 2.01 µM (inactive) | < 0.001 µM (active)
